What all share (assay): NCI tumour cell line growth inhibition, 48 h
Experiment [1] deals with LOX IMVI melanoma.
For experiment [2], the system named is OVCAR-3 ovarian.
Experiment [3] relates to CAKI-1 renal.
In experiment [4] the test system is SN12C renal.
The test system of experiment [5] is SW-620 colon.
Experiment [6] deals with HOP-92 NSCLC.
Experiment [7] has as its system UACC-257 melanoma.
For experiment [8], the system named is HL-60(TB) leukemia.
Experiment [9] deals with A498 renal.
Experiment [10] has as its system SK-MEL-28 melanoma.

Several values for one entry are separate records, joined by “and”; a condition that tells them apart may be missing. Equal entries are not always repeated.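 A five-concentration, 48-hour dose response in 96-well plates underlies each endpoint, interpolated linearly between surrounding concentrations. Here, GI50 denotes the concentration required for 50% inhibition of growth. At the TGI there is no net growth.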

This passage reports GI50 and TGI results from PubChem BioAssay (NCI).

`Cc1cc(C)c2c(N)c3cccc(C)c3nc2n1`: the GI50 is 1700 nM in experiment [1]; 2570 nM in [2]; 2250 nM in [3]; 1610 nM in experiment [4]; 1940 nM in experiment [5]; 2240 nM in experiment [6]. Also, the GI50 was 2.15 µM in [7], 3670 nM in experiment [8], 1480 nM in experiment [9] and 3.86 µM in experiment [10]. Besides, the TGI in [1] amounted to 4.62 µM; in [2], 5.46 µM; in [3], 8.35 µM; in experiment [4], 11.2 µM; in experiment [5], 9.29 µM; in experiment [6], 6.96 µM. Besides, the TGI stood at 4.45 µM in [7], 16.4 µM in experiment [8], 3.11 µM in experiment [9] and 15.9 µM in experiment [10].

For `CCOC(=O)C1=C(c2ccccc2)N(c2ccc(OC)cc2)[C@]2(C#N)C(O)=C(Cl)C(Cl)=C(O)[C@]12C#N`, the GI50 in [1] is 16400 nM; in experiment [2], 22700 nM; in experiment [3] it was 27900 nM; in experiment [4] it was 18800 nM; in [5] it was 20200 nM; in [6], 545 nM. In addition, the GI50 is 22.2 µM in [7], 24500 nM in experiment [8], 35800 nM in [9] and 21.3 µM in experiment [10]. Further, the TGI came to 30.9 µM in [1]; 53.2 µM in experiment [2]; 80.1 µM in [3]; 36.3 µM in experiment [4]; 38.4 µM in experiment [5]; 23.3 µM in [6]. Besides, the TGI in experiment [7] was 52.2 µM; in [8], 50.1 µM; in experiment [9] it was above 100 µM; in experiment [10], 41.9 µM.

Regarding `Cc1cc(NC(=O)NC(=O)c2ccccc2NC(=O)CN)ccc1Oc1ncc(Br)cn1`, the GI50 in experiment [1] was 624 nM; in experiment [2], 15.7 nM; in experiment [4], 508 nM; in [5], 506 nM; in experiment [8], 111 nM and 24.9 nM; in experiment [9], below 10 nM. Further, the GI50 in [10] is 0.0822 µM. Besides, the TGI in experiment [1] is 34.1 µM and > 100 µM; in experiment [3], 2.61 µM; in experiment [4], 38 µM and 49.1 µM; in experiment [5], 23.4 µM and > 100 µM; in experiment [6], 32.7 µM; in experiment [7], 38.4 µM. In addition, the TGI was 0.865 µM and 0.175 µM in [8]; 41.2 µM and > 100 µM in experiment [10].

With `COc1ccccc1NC(=O)C1=C(C)NC(C)=C(C(=O)Nc2ccccc2OC)C1c1cccc2c1OCO2`, the TGI in experiment [1], in experiment [2], in [3], in [4], in [5] and in [6] was above 100 µM throughout. For the same compound, the TGI in experiment [7], in [8], in experiment [9] and in experiment [10] was above 100 µM each time.

Consider `Cc1ccccc1C(C(=O)NC1CCCCC1)N(C(=O)Cn1ccnc1C)c1cccc(F)c1` (stereo not drawn), for which the GI50 in [1] was 44000 nM; in [2] it was above 69500 nM; in [3], above 57400 nM; in experiment [4] it was above 53400 nM; in [5], above 100000 nM; in [6] it was 20000 nM. Further, the GI50 in experiment [7] was above 100 µM; in [8] it was above 100000 nM; in experiment [9] it was 27100 nM; in [10] it was above 100 µM. The TGI in experiment [1], in experiment [2], in experiment [3], in experiment [4], in experiment [5] and in experiment [6] was above 100 µM in each case. Further, the TGI in experiment [7] was above 100 µM; in [8], above 100 µM; in experiment [9], above 83.9 µM; in [10], above 100 µM.

Regarding `COc1ccc(-n2c(C)nc3c(c(C)nn3-c3ccccc3)c2=O)cc1`, the GI50 in [1] was 65 nM; in experiment [2], 41.4 nM; in [3], 46.1 nM; in experiment [4], 442 nM; in experiment [5], 41.5 nM; in experiment [6], 433 nM. Further, the GI50 in [7] is 5.82 µM; in [8] it was 35.3 nM; in [9], 26.4 nM; in experiment [10], 2.07 µM. Further, the TGI was above 100 µM in [1]; above 50.1 µM in experiment [3]; above 100 µM in [4]; above 100 µM in [5]; 29.3 µM in experiment [6]; 75.1 µM in [7]. Besides, the TGI in [8] is 0.22 µM; in experiment [9] it was 0.0843 µM; in experiment [10], above 100 µM.

For `Cc1cc(N=C2C=C(Nc3cc(C)on3)C(=O)c3ccccc32)no1`, the TGI in experiment [1] is above 61.5 µM; in experiment [2], above 100 µM; in experiment [3], above 100 µM; in [4] it was above 100 µM; in experiment [5], above 100 µM; in [6], 52.6 µM. The TGI in experiment [7] is 47 µM; in experiment [8], above 100 µM; in experiment [9], above 100 µM; in experiment [10], above 100 µM.

Regarding `COc1ccc2c(c1)C(=O)c1c-2n(CCCN2CCOCC2)c(=O)c2cc([N+](=O)[O-])ccc12`, the GI50 in experiment [1] is below 10 nM; in experiment [2], below 11.3 nM; in experiment [3], below 10 nM; in experiment [4], below 10 nM; in [5] it was below 10 nM; in experiment [6] it was below 10 nM. Further, the GI50 in [7] was 0.0504 µM; in experiment [8] it was below 19.3 nM; in experiment [9], below 10 nM. In addition, the TGI in experiment [1] is 0.0127 µM; in [2], 1.49 µM; in experiment [3], 0.53 µM; in experiment [4], 19.4 µM; in experiment [5], 9.2 µM; in experiment [6] it was below 0.01 µM. The TGI in experiment [7] worked out at 3.08 µM; in [8] it was 4.03 µM; in experiment [9], 0.117 µM; in experiment [10], 16.2 µM.

As for `CC1=CC2CC(C)C1(C)CCc1ccoc12` (stereo not drawn), the TGI in experiment [1], in experiment [2], in [3], in experiment [4], in [5] and in [6] was above 100 µM throughout. For the same compound, the TGI in [7], in experiment [8], in [9] and in experiment [10] was above 100 µM each time.
